# Measurements published in PubChem BioAssay AID1963826 (Molecular Pharmacology Branch, DTP, NCI, 2024).
# “And” between values parts separate entries of the source, which are not always exact repeats. Equal values may be shown once.
# System: 926638-142-R-J1-PDC complex spheroid viability
# Experiment: Anticancer human tumor 926638-142-R-J1-PDC patient-derived endometrial carcinoma cell line growth inhibition [POLQ]
# Details: for viability, T/C: stronger effect = lower value
# Protocol: Multicellular complex tumor spheroid response to Polymerase (POL) inhibitors (novobiocin, ART-558, RP6685) in combination with a variety of drugs and investigational agents in selected tumor cell lines
# The POL inhibitors (novobiocin, ART-558, and RP6685) were evaluated both individually and in combination with standard of care and investigational anticancer small molecules within a complex spheroid model of solid tumors. . Complex spheroids include a stromal component modeled by human endothelial cells (HUVEC) and fibroblasts modeled by human mesenchymal stem cells (MSCs). The concentration ranges selected for each drug and investigational agent were based upon clinically achievable concentrations if the clinical Cmax of the agent was known.
# Compounds. The drugs and investigational agents: novobiocin (NSC847541), ART-558 (NSC835418), RP-6685 (NSC848927), peposertib (NSC802822), ceralasertib (NSC780249), elimusertib (NSC800525), camonsertib (NSC841442), AZD-1390 (NSC803789), olaparib (NSC753686), talazoparib (NSC767125), rucaparib (NSC756644), sotorasib (NSC818433), MRTX-1133 (NSC836407), SN-38 (NSC673596), topotecan (NSC609699), epotoside (NSC141540), doxorubicin (NSC123127), gemcitabine (NSC613327), 5-fluorouracil (NSC19893), paclitaxel (NSC125973), vemurafenib (NSC761431), MSA-2 (NSC828583), SN-011 (NSC837082), adavosertib (NSC754352), prexasertib (NSC758257), carboplatin (NSC241240) and oxaliplatin (NSC266046), were obtained from the National Cancer Institute (NCI) Developmental Therapeutics Program Chemical Repository (21). The FDA-approved anticancer drug set is available from the Developmental Therapeutics Program at https://dtp.cancer.gov/organization/dscb/obtaining/. […] The stock solutions were prepared in dimethyl sulfoxide (DMSO, Sigma-Aldrich, St. Louis, MO, cat. D2650), except for the platinum compounds which were prepared in saline (Quality Biological, Gaithersburg, MD, cat. 114-055-101), at 800-fold the tested concentration and stored at -70 degrees C prior to their use. All drugs and investigational agents were tested over a range starting from a high concentration at or near the clinical Cmax and decreasing in half-log increments. If the clinical Cmax for an agent had not been determined, the highest concentration tested was 10 microM, except for SN-38, which was tested at a high concentration of 1 microM.
# Cell Culture. All cells were maintained in an incubator at 37 degrees C and 5% CO2 with 95% humidity. The PDC lines were cultured according to standard operating procedures established by the NCI PDMR (https://pdmr.cancer.gov). Table 3 of the manuscript, lists the cell lines along with the number of the three cell types plated to form the mct-spheroids and media for tumor cell growth. After thawing, all PDC lines, except 997537-175-T-J1-PDC and 415267-285-R-J2-PDC, were cultured in Matrigel-coated flasks prepared with a working solution of 1X Ham's F-12 nutrient mix, without supplementation (Thermo Fisher Scientific, cat. 11765054), 100 U/mL penicillin-streptomycin (Thermo Fisher Scientific, cat. 15140122), and 2.5% Matrigel (Corning Inc., Corning, NY, cat. 354248) for the first three passages. The two PDC lines 997537-175-T-J1-PDC and 415267-285-R-J2-PDC were cultured on uncoated flasks. The 857933-349-R-J2-PDC line was cultured in 6C/Colon 1B media containing advanced DMEM/F-12 (Thermo Fisher Scientific, cat. 12634028), 10 mM HEPES (Thermo Fisher Scientific, cat. 15630080), 1X GlutaMAX supplement (Thermo Fisher Scientific, cat. 35050061), 0.1 mg/mL primocin (InvivoGen, San Diego, CA, cat. ant-pm-2), 10% defined fetal bovine serum, heat inactivated (HyClone Laboratories Inc., Logan, UT, cat. SH30070.03HI), 50% L-WRN conditioned media (ATCC, cat. CRL-3276), 1.25 mM N-Acetyl-L-cysteine (Sigma-Aldrich, cat. A9165), 10 mM nicotinamide (Sigma-Aldrich, cat. N0636), 1X B-27 supplement (Thermo Fisher Scientific, cat. 17504044), 1X N-2 supplement (Thermo Fisher Scientific, cat. […]
# [1] = curve of first compound, second compound 0.0316 µM
# [2] = curve of first compound, second compound 0.1 µM
# [3] = curve of first compound, second compound 0.316 µM
# [4] = curve of first compound, second compound 1 µM
# [5] = curve of first compound, second compound 3.16 µM
# [6] = curve of first compound, second compound 10 µM
# [7] = second compound 0.0316 µM, first compound 0.0316 µM
# [8] = second compound 0.0316 µM, first compound 0.1 µM
# [9] = second compound 0.0316 µM, first compound 0.316 µM
# [10] = second compound 0.0316 µM, first compound 1 µM
# [11] = second compound 0.0316 µM, first compound 3.16 µM
# [12] = second compound 0.0316 µM, first compound 10 µM
# [13] = second compound 0.1 µM, first compound 0.0316 µM
# [14] = second compound 0.1 µM, first compound 0.1 µM
# [15] = second compound 0.1 µM, first compound 0.316 µM
# [16] = second compound 0.1 µM, first compound 1 µM
# [17] = second compound 0.1 µM, first compound 3.16 µM
# [18] = second compound 0.1 µM, first compound 10 µM
# [19] = second compound 0.316 µM, first compound 0.0316 µM
# [20] = second compound 0.316 µM, first compound 0.1 µM
# [21] = second compound 0.316 µM, first compound 0.316 µM
# [22] = second compound 0.316 µM, first compound 1 µM
# [23] = second compound 0.316 µM, first compound 3.16 µM
# [24] = second compound 0.316 µM, first compound 10 µM
# [25] = second compound 1 µM, first compound 0.0316 µM
# [26] = second compound 1 µM, first compound 0.1 µM
# [27] = second compound 1 µM, first compound 0.316 µM
# [28] = second compound 1 µM, first compound 1 µM
# [29] = second compound 1 µM, first compound 3.16 µM
# [30] = second compound 1 µM, first compound 10 µM
# [31] = second compound 3.16 µM, first compound 0.0316 µM
# [32] = second compound 3.16 µM, first compound 0.1 µM
# [33] = second compound 3.16 µM, first compound 0.316 µM
# [34] = second compound 3.16 µM, first compound 1 µM
# [35] = second compound 3.16 µM, first compound 3.16 µM
# [36] = second compound 3.16 µM, first compound 10 µM
# [37] = second compound 10 µM, first compound 0.0316 µM
# [38] = second compound 10 µM, first compound 0.1 µM
# [39] = second compound 10 µM, first compound 0.316 µM
# [40] = second compound 10 µM, first compound 1 µM
# [41] = second compound 10 µM, first compound 3.16 µM
# [42] = second compound 10 µM, first compound 10 µM
# 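Further: spheroids exposed to drugs for one week before readout.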
# 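Wherever viability, T/C is given: percent viability relative to DMSO vehicle control wells set as 100%.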
structure (smiles),measurement,setting,value
COc1cc(C2c3cc4c(cc3C(OC3OC5COC(C)OC5C(O)C3O)C3COC(=O)C23)OCO4)cc(OC)c1O (stereo unspecified) + COC1C(OC(N)=O)C(O)C(Oc2ccc3c(O)c(NC(=O)c4ccc(O)c(CC=C(C)C)c4)c(=O)oc3c2C)OC1(C)C,IC50,[1],> 10 µM
same,IC50,[2],> 10 µM
same,IC50,[3],> 10 µM
same,IC50,[4],> 10 µM
same,IC50,[5],> 10 µM
same,IC50,[6],> 10 µM
same,"viability, T/C",[7],86.8%
same,"viability, T/C",[8],79%
same,"viability, T/C",[9],78.1%
same,"viability, T/C",[10],78.4%
same,"viability, T/C",[11],70.1%
same,"viability, T/C",[12],56.2%
same,"viability, T/C",[13],95%
same,"viability, T/C",[14],80.6%
same,"viability, T/C",[15],83.1%
same,"viability, T/C",[16],62.7%
same,"viability, T/C",[17],57.5%
same,"viability, T/C",[18],57.7%
same,"viability, T/C",[19],88.2%
same,"viability, T/C",[20],98.7%
same,"viability, T/C",[21],75.7%
same,"viability, T/C",[22],79.3%
same,"viability, T/C",[23],66%
same,"viability, T/C",[24],64.6%
same,"viability, T/C",[25],84.1%
same,"viability, T/C",[26],85.8%
same,"viability, T/C",[27],79%
same,"viability, T/C",[28],61.6%
same,"viability, T/C",[29],70.9%
same,"viability, T/C",[30],55.6%
same,"viability, T/C",[31],82%
same,"viability, T/C",[32],88.4%
same,"viability, T/C",[33],83.2%
same,"viability, T/C",[34],80.2%
same,"viability, T/C",[35],71.2%
same,"viability, T/C",[36],60.9%
same,"viability, T/C",[37],81.8%
same,"viability, T/C",[38],75.3%
same,"viability, T/C",[39],78.1%
same,"viability, T/C",[40],74.9%
same,"viability, T/C",[41],68.8%
same,"viability, T/C",[42],55%
C=CCn1c(=O)c2cnc(Nc3ccc(N4CCN(C)CC4)cc3)nc2n1-c1cccc(C(C)(C)O)n1,"viability, T/C",compound 0.00316 µM,85% and 93.8% and 95.4%
same,"viability, T/C",compound 0.01 µM,80.4% and 77.2% and 83.5%
same,"viability, T/C",compound 0.0316 µM,99.2% and 71.9% and 92.3%
same,"viability, T/C",compound 0.1 µM,95.8% and 78.3% and 77%
same,"viability, T/C",compound 0.316 µM,47.6% and 50.2% and 49%
same,"viability, T/C",compound 1 µM,36.5% and 43.9% and 48.2%
same,IC50,curve of compound,0.296 µM and 0.541 µM and 0.3 µM
CC(C)n1c(=O)n(C)c2cnc3cc(F)c(-c4ccc(OCCCN5CCCCC5)nc4)cc3c21 + Cc1cccc(N(C)C(=O)C2C(O)CCN2c2nc(C)cc(C(F)(F)F)c2C#N)c1,IC50,[1],> 10 µM
same,IC50,[2],> 10 µM
same,IC50,[3],> 10 µM
same,IC50,[4],> 10 µM
same,IC50,[5],> 10 µM
same,IC50,[6],9.83 µM
same,"viability, T/C",[7],86.5%
same,"viability, T/C",[8],88.5%
same,"viability, T/C",[9],87.6%
same,"viability, T/C",[10],88.9%
same,"viability, T/C",[11],94.1%
same,"viability, T/C",[12],62.1%
same,"viability, T/C",[13],94.6%
same,"viability, T/C",[14],81.8%
same,"viability, T/C",[15],103%
same,"viability, T/C",[16],86.7%
same,"viability, T/C",[17],79.5%
same,"viability, T/C",[18],50.9%
same,"viability, T/C",[19],104%
same,"viability, T/C",[20],123%
same,"viability, T/C",[21],89.7%
same,"viability, T/C",[22],102%
same,"viability, T/C",[23],93.7%
same,"viability, T/C",[24],52.3%
same,"viability, T/C",[25],92.8%
same,"viability, T/C",[26],88.9%
same,"viability, T/C",[27],78.5%
same,"viability, T/C",[28],102%
same,"viability, T/C",[29],107%
same,"viability, T/C",[30],72.3%
same,"viability, T/C",[31],89.5%
same,"viability, T/C",[32],95.8%
same,"viability, T/C",[33],92%
same,"viability, T/C",[34],104%
same,"viability, T/C",[35],74%
same,"viability, T/C",[36],65.2%
same,"viability, T/C",[37],103%
same,"viability, T/C",[38],89.2%
same,"viability, T/C",[39],107%
same,"viability, T/C",[40],87%
same,"viability, T/C",[41],76.1%
same,"viability, T/C",[42],49.1%
